Key:
[1] = system: Bacillus subtilis ATCC 6633; assay: Paper-disc agar-diffusion assay system (Plate Assay, Table VIII); assay type: cell-based; details: samples at 1 mg/ml, as Na-K salts; dried-broth reference standard = 100 units/ml
Description: (§1) The antimicrobial activity of two typical A-32887 acyl ester derivatives is compared with that of A-32887 (each as Na-K salts) in Table VIII. Activity against illustrative bacteria is measured by the conventional disc-diffusion method. In addition, the results of a conventional paper-disc agar-diffusion assay system (Plate Assay) against Bacillus subtilis ATCC 6633 are reported. The activity in this test is quantitated and uses a dried-broth reference standard which is assigned an arbitrary potency of 100 units/ml. The samples were assayed at 1 mg/ml.

Bacillus subtilis = assay: Conventional disc-diffusion method (Table VIII); assay type: cell-based; details: as Na-K salts, samples at 1 mg/ml
Description: as §1

Micrococcus lutea = assay: Conventional disc-diffusion method (Table VIII); assay type: cell-based; details: as Na-K salts; samples at 1 mg/ml
Description: as §1

Staphylococcus aureus = assay: Conventional disc-diffusion method (Table VIII); assay type: cell-based; details: as Na-K salts; samples at 1 mg/ml
Description: as §1

[2] = assay type: physicochemical; details: 80% aqueous dimethylformamide
Excerpt: Electrometric titration of A-32887 methyl ether derivative (Na salt) in 80% aqueous dimethylformamide indicates the presence of a titratable group with a pKa value of about 5.4.

## CO[C@H]1CC[C@H](OC2[C@@H](C)[C@@](C)(O)O[C@H]([C@H]3CC[C@H]([C@@H]4CC[C@H]([C@@]5(C)O[C@]6(O[C@H](C[C@@H]7O[C@](O)([C@@H](O)C(=O)O)[C@@H](C)[C@H](OC)[C@@]7(C)OC)C[C@@H](OC)[C@H]6C)[C@H](C)[C@H]5OC)O4)O3)[C@H]2C)O[C@@H]1C.[K+].[Na+] (some centres unmarked) [A-32887]
[1]
  Plate Assay: 1350 units/ml
Bacillus subtilis; Minimal media
  Activity by disc-diffusion, Bacillus subtilis*: 30
Bacillus subtilis
  Activity by disc-diffusion, Bacillus subtilis: 18
Micrococcus lutea
  Activity by disc-diffusion, Micrococcus lutea: 16
Staphylococcus aureus
  Activity by disc-diffusion, Staphylococcus aureus: 16
Ionophore properties
  ion-binding and ion-transport properties: exhibits ion-binding and iontransport properties
Ionophore properties; natural and artificial membranes
  cation permeability of membranes: alters the cation permeability
[2]
  pKa: 4.60

Source: patent US4133876A, “Antibiotic A-32887 and process for production thereof” (Eli Lilly and Company, priority 1977, dated 1979)
